Results taken from US20170202847A1, “METHODS FOR THE TREATMENT OF TUMORS” (The University of North Carolina at Chapel Hill, priority 2014, published 2017).
Entries after “also recorded” stand apart in the source; their conditions may differ. Like-named read-outs stand apart in the source and are kept apart here.

How the values were obtained:
[1] = Dose-finding and tolerability in mice, drug in chow; type: in vivo; conditions: for MTD: mouse, in vivo
Description: […]. AZD6244 is a MEK inhibitor that was administered in mouse chow at a predicted dose of 37 mg/kg (MTD). UNC2025 was administered in chow at a predicted dose of 120 mg/kg (MTD). […]. AZD6244 is a MEK inhibitor that was dosed in mouse chow at a predicted dose of 37 mg/kg (MTD). UNC2025 was dosed in chow at a predicted dose of 120 mg/kg (MTD).
. Once daily, oral dosing inhibits the growth of Mer-expressing leukemia and NSCLC xenografts. […]. After dose-finding studies in wild-type mice established an MTD, the inhibitor was given at 120 mpk/d in mouse chow. […]. The overall response was 10% (partial responses and stable disease). There were no complete responses. […]. […] See, FIG. 16A and FIG. 16B.

[2] = tested on: Colo699 (Mer+, FGFR+) and H226 (Mer+, FGFR+) NSCLC cells; assay: Soft agar colony formation of NSCLC cells, Mer TKI and FGFR TKI; type: cell-based; conditions: 14 days
[3] = tested on: MER-expressing ALL cell lines; assay: Apoptosis and colony formation in methylcellulose of ALL cell lines; type: cell-based
[4] = tested on: murine model of breast cancer (C3TAg); assay: Murine model of breast cancer (C3TAg); type: in vivo; conditions: 120 mpk/d in chow
[5] = tested on: B-RAF wildtype (HMCB) and B-RAF mutant (G361) cell lines; assay: Colony formation of melanoma cell lines; type: cell-based; conditions: for colony formation: HMCB and G361
From the text: (§1) See, FIG. 25A and FIG. 25B.

[6] = tested on: HMCB and G361 melanoma cell lines; assay: Apoptosis of melanoma cell lines by flow cytometry (YO-PRO-1 iodide/propidium iodide); type: cell-based
From the text: as §1

Colo699 cells = assay: Subcutaneous murine xenograft model of NSCLC; type: in vivo
Description: FIG. 18A is a graph illustrating tumor volume verses days treated. Colo699 tumor cells were subcutaneously implanted in mice.
(§2) The effects of Mer TKI treatment on activation of Mer and related members of the TAM-family of kinases, Axl and Tyro3, and effects on downstream proliferative and pro-survival signaling pathways were analyzed by immunoblot. In addition, Mer TKI-mediated anti-tumor activity was determined in a panel of NSCLC cell lines using soft-agar and clonogenic assays. Cells were stained with YoPro-1-iodide and propidium iodide dyes and induction of apoptosis was determined using flow cytometry. Finally, a subcutaneous murine xenograft model was employed to determine therapeutic effects in vivo.

[7] = tested on: RAS-driven, INK4a/Arf null melanoma GEMM (TRIA); assay: RAS-driven, INK4a/Arf null melanoma GEMM (TRIA); type: in vivo
Description: FIG. 14 is a waterfall plot showing percent change in tumor volumes verses days of treatment in the TRIA GEM model of melanoma. Mice were treated with UNC2025, AZD6244, Carbo/Taxol or received no treatment.
After dose-finding studies in wild-type mice established an MTD, the inhibitor was given at 120 mpk/d in mouse chow.

Pharmacokinetics in mice = conditions: mouse, in vivo
Mer = molecular target: T1, Mer (Homo sapiens, UniProt Q12866); assay: Mer autophosphorylation in NSCLC cell lines by immunoblot; type: cell-based; conditions: numerous cell lines
T1 sequence (Q12866 21-999): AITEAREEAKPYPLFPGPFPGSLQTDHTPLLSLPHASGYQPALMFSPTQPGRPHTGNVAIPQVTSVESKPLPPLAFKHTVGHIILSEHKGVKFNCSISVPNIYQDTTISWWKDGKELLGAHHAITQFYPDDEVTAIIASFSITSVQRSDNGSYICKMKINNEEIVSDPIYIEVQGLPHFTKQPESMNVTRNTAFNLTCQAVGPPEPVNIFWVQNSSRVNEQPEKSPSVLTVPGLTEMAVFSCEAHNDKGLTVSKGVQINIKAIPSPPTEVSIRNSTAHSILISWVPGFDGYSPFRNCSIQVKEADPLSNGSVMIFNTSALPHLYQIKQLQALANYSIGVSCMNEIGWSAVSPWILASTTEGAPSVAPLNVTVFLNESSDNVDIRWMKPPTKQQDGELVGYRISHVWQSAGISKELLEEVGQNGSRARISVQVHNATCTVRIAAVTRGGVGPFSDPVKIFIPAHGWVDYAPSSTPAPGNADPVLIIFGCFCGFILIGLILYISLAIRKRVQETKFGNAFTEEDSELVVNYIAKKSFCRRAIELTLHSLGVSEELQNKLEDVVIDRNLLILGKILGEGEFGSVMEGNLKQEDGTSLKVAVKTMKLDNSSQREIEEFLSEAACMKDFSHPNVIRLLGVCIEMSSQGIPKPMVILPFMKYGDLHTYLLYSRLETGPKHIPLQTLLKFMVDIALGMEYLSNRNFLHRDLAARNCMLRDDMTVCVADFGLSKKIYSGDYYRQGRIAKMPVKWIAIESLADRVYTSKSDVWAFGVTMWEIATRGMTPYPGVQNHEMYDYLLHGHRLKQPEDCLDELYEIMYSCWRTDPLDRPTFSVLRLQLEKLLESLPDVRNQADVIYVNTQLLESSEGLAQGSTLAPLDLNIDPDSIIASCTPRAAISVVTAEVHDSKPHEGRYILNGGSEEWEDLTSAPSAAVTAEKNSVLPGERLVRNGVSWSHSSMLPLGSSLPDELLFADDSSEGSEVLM
Description: as §2

[8] = tested on: ERK, AKT, and STAT6 signaling downstream of MER; conditions: immunoblot
Description: Downstream signaling was evaluated by immunoblotting, and induction of apoptosis was determined by flow cytometry in cells stained with YO-PRO®-1 iodide and propidium iodide.

TRIA = TRIA tumors injected into NSG mice; type: in vivo; conditions: linear regression p<0.001
Description: FIG. 20A is a graph of tumor volume (mm^3) verses days. This is treatment of the intact GEMM. FIG. 20B is a graph illustrating the results from TRIA injected into NSG mice. The mice were then treated with no drug or UNC2025. […] In FIGS. 20A and 20B, both treated slopes were statistically significant compared to untreated slopes using linear regression p<0.001. FIG. 20C; Pten/Braf genetically engineered mice were treated with no drug or UNC2025. The graph illustrates tumor volumes (mm^3) verses days on treatment.

[9] = tested on: PyVmT mammary gland tumor cells; assay: Orthotopic PyVmT mammary gland tumor model in immunocompetent C57Bl/6 mice; type: in vivo
Description: FIG. 10A is an immunoblot showing the presence of Mer TK in J774 murine macrophage and absence in PyVmT murine mammary tumor cells. FIGS. 10B and 10C illustrate the results from an immune-competent orthotopic model of Mer-negative breast cancer. […] FIG. 10B is a graph showing tumor volume (mm^3) verses days post-tumor injection.
FIG. 21A is a timeline illustrating a mouse model using PyVmT cells. […] Mice were dosed from day −2 to day 28. At day zero, 1×10^6 PyVmT cells were implanted into the inguinal mammary fatpad of mice. Tumor volumes were measured at days 16, 19, 21, 23, 26 and 28. Day 28 was the end of the study. FIG. 21B is a graph illustrating tumor volume […] verses days post-tumor injection.
See, FIGS. 10A-10C and FIGS. 21A and 21B.

[10] = mouse, in vivo
SKMEL119 melanoma cells = assay: Invasion into collagen matrix; type: cell-based
[11] = tested on: FLT3-ITD-positive (Molm-13 and MV4; 11) AML cell lines; assay: Apoptosis of FLT3-ITD AML cell lines by flow cytometry; type: cell-based; conditions: vehicle 10±2%, p<0.001
From the text: (§3) FLT-3 and MER tyrosine kinases have been previously identified as potential targets in the treatment of acute myeloid leukemia (AML). Expression of FLT-3 internal tandem duplication (ITD) occurs in ˜30-40% of AML patient samples and MER overexpression has been detected in ˜80-100%. In this example, a novel first-in-class small molecule inhibitor that has potent activity against both of these kinases and mediates growth inhibition or apoptosis of cell lines and patient myeloblasts is disclosed. […] See, FIGS. 4A-F.

[12] = tested on: primary AML patient samples (MER and/or FLT3-ITD positive); assay: Primary AML patient samples: phosphorylation, apoptosis, colony formation in methylcellulose; type: cell-based, human
From the text: as §3

[13] = tested on: MER-positive (Kasumi-1 and U937) AML cell lines; assay: Soft agar colony formation of MER-positive AML cell lines; type: cell-based; conditions: vehicle = 100, p<0.01
From the text: as §3

AKT and STAT6 activation = AKT and STAT6 activation in AML cell lines; type: cell-based; conditions: short term exposure; cell lines expressing FLT3-ITD or MER
From the text: as §3

[14] = tested on: MER-positive (Kasumi-1 and U937) AML cell lines; assay: Apoptosis of MER-positive AML cell lines by flow cytometry; type: cell-based; conditions: vehicle 20±10%, p<0.01
From the text: as §3

[15] = compared to vehicle treated tumor-bearing mice

Cn1cnc2c(F)c(Nc3ccc(Br)cc3Cl)c(C(=O)NOCCO)cc21 [AZD6244, reference compound]
MTD [1]: 37 mg/kg

COc1cc(CCc2cc(NC(=O)c3ccc(N4CC(C)NC(C)C4)cc3)n[nH]2)cc(OC)c1 (stereo not drawn) [AZD-4547, reference compound]
colony formation in soft agar [2]: inhibited

CCCCNc1ncc2c(-c3ccc(CN4CCN(C)CC4)cc3)cn([C@H]3CC[C@H](O)CC3)c2n1 [MRX6313]
apoptosis and colony-formation in methylcellulose [3]: induction of apoptosis and reduced colony-formation | single agent activity [4]: did not exhibit single agent activity | concentration resulting in an almost complete block in colony formation ([5]; B-RAF wild-type and B-RAF mutant cell lines): ≥ 300 nM | colony formation [5]: reduced colony growth | apoptosis [6]: induced apoptosis | tumor volume (Colo699 cells): significant decrease in tumor volume | toxicity in the TRIA model ([7]; 120 mpk/d in chow): mild, well tolerated toxicity | complete responses (CRs) ([7]; TRIA, 8 mice): 3 | single agent activity ([7]; TRIA, 120 mpk/d in chow): pronounced single agent activity | percent change in tumor volumes, waterfall plot, ranking ([7]; versus AZD6244, Carbo/Taxol, no treatment): best response | oral bioavailability / pharmacokinetics (Pharmacokinetics in mice): orally bioavailable; also recorded: favorable pharmacokinetics | concentrations that blocked Mer autophosphorylation (Mer): sub-micromolar | downstream signaling [8]: abrogates signaling downstream of MER | Mer pharmacodynamics marker (platelet aggregation) ([1]; 120 mpk/d in mouse chow): inhibition of second phase platelet aggregation | weight loss ([1]; 120 mpk/d in mouse chow): did not cause weight loss | MTD ([1]; oral, administered in chow, read-out: MTD, predicted dose in mouse chow): 120 mg/kg | tumor volumes versus control (TRIA): significantly reduced | RNA-sequence data on immune cells ([9]; 3 mg/kg twice daily by oral gavage): increases pro-inflammatory cytokines in CD11b^+ cells and activates CD8^+ T cell effector function | primary tumor growth reduction compared to vehicle ([9]; after four weeks of daily treatment): two-fold | reduction of serum IL-4 level [9, 15]: 30% | reduction of serum IL-10 level [9, 15]: 20% | median survival (B-ALL xenograft; days after inoculation with tumor cells, vehicle 27 days, p<0.0001): 70 days | tumor burden (B-ALL xenograft; minimal residual disease model): dose dependent reduction in tumor burden | colony formation in soft agar [2]: inhibited

CCCCNc1ncc2c(-c3ccc(S(=O)(=O)N4CCOCC4)cc3)nn(C3CCC(O)CC3)c2n1 (stereo not drawn) [UNC1062]
oral bioavailability / pharmacokinetics [10]: orally bioavailable | colony formation [5]: reduced colony formation | invasion into collagen matrix (SKMEL119 melanoma cells): reduced invasion

CCCCNc1ncc2c(-c3ccc(S(=O)(=O)N4CCOCC4)cc3)cn(C3CCC(O)CC3)c2n1 (stereo not drawn) [UNC1666]
apoptotic cells [11]: 90±6% | Mer and Flt3 kinase phosphorylation and downstream signaling ([12]; leukemic blasts from a patient with AML, 50, 100 and 300 nM): abrogates | colony formation in methylcellulose ([12]; six primary patient samples): near complete inhibition of colony formation | induction of apoptosis ([12]; six primary patient samples): dose-dependent induction of apoptosis | relative colony counts [13]: 34±15 | AKT and STAT6 activation (AKT and STAT6 activation): dose-dependent decrease | apoptotic cells [14]: 66±10%
